Assays:
[1] = molecular target: Disintegrin and metalloproteinase domain-containing protein 17 (Homo sapiens, UniProt P78536); test: Inhibition of TACE by FRET assay
[2] = molecular target: Disintegrin and metalloproteinase domain-containing protein 17 (Mus musculus, UniProt Q9Z0F8); test: Inhibition of TACE in mouse Raw264.7 cells assessed as inhibition of LPS-induced TNFalpha production treated 1 hr before LPS challenge measured 4 hrs post LPS challenge; assay type: cell-based
Interstitial collagenase = molecular target: T1, Interstitial collagenase (Homo sapiens, UniProt P03956); test: Inhibition of MMP1 by FRET assay
T1 sequence (P03956 whole entry): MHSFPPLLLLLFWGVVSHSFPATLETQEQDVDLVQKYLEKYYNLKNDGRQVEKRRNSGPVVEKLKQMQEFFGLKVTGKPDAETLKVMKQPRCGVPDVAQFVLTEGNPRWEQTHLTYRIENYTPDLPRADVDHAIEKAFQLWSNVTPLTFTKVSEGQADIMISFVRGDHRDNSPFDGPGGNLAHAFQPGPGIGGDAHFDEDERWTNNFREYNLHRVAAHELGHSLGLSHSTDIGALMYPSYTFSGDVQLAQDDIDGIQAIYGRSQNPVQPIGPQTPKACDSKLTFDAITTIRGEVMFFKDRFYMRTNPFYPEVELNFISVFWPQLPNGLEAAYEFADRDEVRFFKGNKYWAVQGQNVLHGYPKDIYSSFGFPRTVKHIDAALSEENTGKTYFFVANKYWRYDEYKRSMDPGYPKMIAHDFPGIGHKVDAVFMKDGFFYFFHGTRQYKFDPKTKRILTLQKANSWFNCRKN

[3] = molecular target: 72 kDa type IV collagenase (Homo sapiens, UniProt P08253); test: Inhibition of MMP2 by […] assay
Sequence of 72 kDa type IV collagenase (P08253 whole entry): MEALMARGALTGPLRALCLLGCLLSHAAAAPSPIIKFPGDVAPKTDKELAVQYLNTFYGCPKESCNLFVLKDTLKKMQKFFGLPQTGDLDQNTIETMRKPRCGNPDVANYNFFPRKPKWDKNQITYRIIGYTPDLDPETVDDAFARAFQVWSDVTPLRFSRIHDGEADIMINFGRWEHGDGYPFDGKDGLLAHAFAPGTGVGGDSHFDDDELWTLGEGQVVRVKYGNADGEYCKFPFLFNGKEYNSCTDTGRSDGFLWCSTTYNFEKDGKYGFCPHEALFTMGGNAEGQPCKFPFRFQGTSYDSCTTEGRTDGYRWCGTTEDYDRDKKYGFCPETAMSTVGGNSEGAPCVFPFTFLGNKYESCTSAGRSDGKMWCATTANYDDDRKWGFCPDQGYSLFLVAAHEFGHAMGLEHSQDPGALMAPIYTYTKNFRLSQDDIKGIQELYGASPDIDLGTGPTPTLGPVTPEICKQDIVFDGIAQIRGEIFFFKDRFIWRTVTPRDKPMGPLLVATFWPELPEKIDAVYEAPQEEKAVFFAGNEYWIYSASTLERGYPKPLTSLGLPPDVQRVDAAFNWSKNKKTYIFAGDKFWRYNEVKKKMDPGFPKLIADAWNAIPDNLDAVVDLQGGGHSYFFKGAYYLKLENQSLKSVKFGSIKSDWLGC

Collagenase 3 = Collagenase 3 (Homo sapiens, UniProt P45452); test: Inhibition of MMP13 by […] assay
[4] = molecular target: Matrix metalloproteinase-14 (Homo sapiens, UniProt P50281); test: Inhibition of MMP14 by […] assay

Sequence of Disintegrin and metalloproteinase domain-containing protein 17 (Mus musculus, UniProt Q9Z0F8) (Q9Z0F8 whole entry, the tested form may be a part): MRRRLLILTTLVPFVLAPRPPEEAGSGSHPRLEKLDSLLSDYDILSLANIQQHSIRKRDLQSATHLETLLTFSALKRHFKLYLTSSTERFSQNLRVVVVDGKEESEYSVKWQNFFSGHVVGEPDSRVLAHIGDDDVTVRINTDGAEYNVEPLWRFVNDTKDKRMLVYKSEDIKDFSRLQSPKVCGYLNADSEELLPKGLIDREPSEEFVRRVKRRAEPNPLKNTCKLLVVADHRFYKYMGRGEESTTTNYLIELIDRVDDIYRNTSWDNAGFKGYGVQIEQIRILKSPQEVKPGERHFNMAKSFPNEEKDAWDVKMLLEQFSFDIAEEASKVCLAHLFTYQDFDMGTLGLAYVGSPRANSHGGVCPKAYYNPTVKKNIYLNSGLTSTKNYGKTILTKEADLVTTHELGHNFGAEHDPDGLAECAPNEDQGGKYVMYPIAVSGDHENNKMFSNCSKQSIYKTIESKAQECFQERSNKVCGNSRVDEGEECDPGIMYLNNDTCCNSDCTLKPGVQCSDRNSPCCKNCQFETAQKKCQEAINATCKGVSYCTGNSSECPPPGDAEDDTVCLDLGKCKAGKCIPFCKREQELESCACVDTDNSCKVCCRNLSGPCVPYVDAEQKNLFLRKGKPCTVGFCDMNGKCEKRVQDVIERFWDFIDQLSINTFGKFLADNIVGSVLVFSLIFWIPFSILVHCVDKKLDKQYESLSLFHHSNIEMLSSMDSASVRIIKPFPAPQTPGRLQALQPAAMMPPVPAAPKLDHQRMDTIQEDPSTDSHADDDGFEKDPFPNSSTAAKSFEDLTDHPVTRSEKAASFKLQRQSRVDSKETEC
Sequence of Disintegrin and metalloproteinase domain-containing protein 17 (Homo sapiens, UniProt P78536) (P78536 whole entry, the tested form may be a part): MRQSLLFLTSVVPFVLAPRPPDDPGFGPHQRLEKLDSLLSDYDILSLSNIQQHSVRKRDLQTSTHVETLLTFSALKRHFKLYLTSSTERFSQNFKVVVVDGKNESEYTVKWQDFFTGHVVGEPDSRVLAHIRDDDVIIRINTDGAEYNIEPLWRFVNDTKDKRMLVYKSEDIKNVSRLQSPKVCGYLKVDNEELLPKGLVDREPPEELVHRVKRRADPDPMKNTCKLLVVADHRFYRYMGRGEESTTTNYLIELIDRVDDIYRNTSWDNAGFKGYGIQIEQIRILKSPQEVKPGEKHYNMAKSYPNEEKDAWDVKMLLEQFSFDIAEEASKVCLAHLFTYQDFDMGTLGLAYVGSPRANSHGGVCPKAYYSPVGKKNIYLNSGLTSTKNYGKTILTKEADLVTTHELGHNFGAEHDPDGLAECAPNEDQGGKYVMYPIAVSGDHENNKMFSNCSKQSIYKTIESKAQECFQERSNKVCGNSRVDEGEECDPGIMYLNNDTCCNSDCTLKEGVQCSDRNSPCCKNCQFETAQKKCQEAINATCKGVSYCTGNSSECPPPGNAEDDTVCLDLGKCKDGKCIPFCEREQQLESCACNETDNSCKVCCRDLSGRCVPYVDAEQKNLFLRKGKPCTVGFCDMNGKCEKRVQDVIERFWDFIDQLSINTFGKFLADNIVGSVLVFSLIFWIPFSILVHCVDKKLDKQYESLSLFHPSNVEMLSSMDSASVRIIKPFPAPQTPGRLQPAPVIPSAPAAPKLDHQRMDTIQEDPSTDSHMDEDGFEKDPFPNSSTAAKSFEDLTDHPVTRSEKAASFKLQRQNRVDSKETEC

| IC50 [1] [nM] | Compound | also measured |
| --- | --- | --- |
| 1430 | CC#CCOc1ccc(S(=O)(=O)N[C@H](Cc2cn(C)c3ccccc23)C(=O)O)cc1 |  |
| 1710 | CC#CCOc1ccc(S(=O)(=O)N[C@H](Cc2cn(CC3CCC3)c3ccccc23)C(=O)O)cc1 |  |
| 1570 | CC#CCOc1ccc(S(=O)(=O)NC(Cc2c[nH]c3cc(C)ccc23)C(=O)O)cc1 (racemic) |  |
| 630 | CC#CCOc1ccc(S(=O)(=O)NC(Cc2c[nH]c3ccc(Br)cc23)C(=O)O)cc1 (racemic) |  |
| > 100000 | CC#CCOc1ccc(S(=O)(=O)NC(Cc2cn(C)c3ccc(C(=O)O)cc23)C(=O)O)cc1 (racemic) |  |
| 1230 | CC#CCOc1ccc(S(=O)(=O)NC(Cc2cn(CC(C)C)c3ccc(OC)cc23)C(=O)O)cc1 (racemic) |  |
| 300 | CC#CCOc1ccc(S(=O)(=O)NC(Cc2c(C)n(CC(C)C)c3ccc(Cl)cc23)C(=O)O)cc1 (racemic) |  |
| > 100000 | CC#CCOc1ccc(S(=O)(=O)NC(Cc2cn(CC)c3ccc(C(=O)O)cc23)C(=O)O)cc1 (racemic) |  |
| 340 | CC#CCOc1ccc(S(=O)(=O)NC(Cc2c(C)n(Cc3cccc(F)c3)c3ccc(OC)cc23)C(=O)O)cc1 (racemic) |  |
| 300 | CC#CCOc1ccc(S(=O)(=O)NC(Cc2c(C)n(Cc3ccccc3F)c3ccc(OC)cc23)C(=O)O)cc1 (racemic) |  |
| 2240 | CC#CCOc1ccc(S(=O)(=O)NC(Cc2cn(Cc3ccccc3F)c3ccc(OC)cc23)C(=O)O)cc1 (racemic) |  |
| 1610 | CC#CCOc1ccc(S(=O)(=O)NC(Cc2c[nH]c3ccc(O)cc23)C(=O)O)cc1 (racemic) |  |
| 1560 | CC#CCOc1ccc(S(=O)(=O)NC(Cc2c[nH]c3ccc(F)cc23)C(=O)O)cc1 (racemic) |  |
| 2960 | CC#CCOc1ccc(S(=O)(=O)NC(Cc2c[nH]c3cc(F)ccc23)C(=O)O)cc1 (racemic) |  |
| 320 | CC#CCOc1ccc(S(=O)(=O)NC(Cc2c(C)n(Cc3ccc(F)cc3)c3ccc(OC)cc23)C(=O)O)cc1 (racemic) |  |
| 900 | CC#CCOc1ccc(S(=O)(=O)NC(Cc2c(C)n(C)c3ccc(OC)cc23)C(=O)O)cc1 (racemic) |  |
| 10100 | CC#CCOc1ccc(S(=O)(=O)NC(Cc2c[nH]c3ccc(OC)cc23)C(=O)O)cc1 (single isomer, unassigned; enantiomer 1) |  |
| 140 | CC#CCOc1ccc(S(=O)(=O)NC(Cc2c[nH]c3ccc(OC)cc23)C(=O)O)cc1 (single isomer, unassigned; enantiomer 2) | IC50 [3]: 1270 nM; IC50 [2]: 57000 nM; IC50 (Interstitial collagenase): > 50000 nM; IC50 (Collagenase 3): 13600 nM; IC50 [4]: 20700 nM |

More lines, now with the values behind:

| Compound | IC50 [1] [nM] | also measured |
| --- | --- | --- |
| CC#CCOc1ccc(S(=O)(=O)N[C@H](Cc2cn(Cc3ccc(OC)cc3)c3ccccc23)C(=O)O)cc1 |  | IC50 [2]: > 100000 nM; IC50 (Interstitial collagenase): > 50000 nM |
| CC#CCOc1ccc(S(=O)(=O)NC(Cc2c(C)n(Cc3cccc(C#N)c3)c3ccc(OC)cc23)C(=O)O)cc1 (configuration not stated) | 410 |  |
| CC#CCOc1ccc(S(=O)(=O)N[C@H](Cc2c[nH]c3ccc(C)cc23)C(=O)O)cc1 |  | IC50 [3]: 270 nM; IC50 [2]: 7800 nM; IC50 (Interstitial collagenase): > 50000 nM; IC50 (Collagenase 3): 1810 nM; IC50 [4]: 6820 nM |
| CC#CCOc1ccc(S(=O)(=O)NC(Cc2cn(Cc3ccc4c(c3)OCO4)c3ccc(OC)cc23)C(=O)O)cc1 (racemic) | 1500 |  |
| CC#CCOc1ccc(S(=O)(=O)NC(Cc2c(C)n(Cc3ccc(Cl)cc3)c3ccc(OC)cc23)C(=O)O)cc1 (racemic) | 290 |  |
| CC#CCOc1ccc(S(=O)(=O)NC(Cc2c(C)n(Cc3ccc(C#N)cc3)c3ccc(OC)cc23)C(=O)O)cc1 (racemic) | 470 |  |
| CC#CCOc1ccc(S(=O)(=O)NC(Cc2c(C)n(Cc3ccc(OC)cc3)c3ccc(Cl)cc23)C(=O)O)cc1 (racemic) | 190 |  |
| CC#CCOc1ccc(S(=O)(=O)NC(Cc2c(C)n(Cc3ccccc3)c3ccc(OC)cc23)C(=O)O)cc1 (racemic) | 250 |  |
| CC#CCOc1ccc(S(=O)(=O)NC(Cc2c(C)n(Cc3cccc(OC)c3)c3ccc(OC)cc23)C(=O)O)cc1 (racemic) | 280 |  |
| CC#CCOc1ccc(S(=O)(=O)NC(Cc2cn(Cc3ccccc3)c3ccc(C(=O)O)cc23)C(=O)O)cc1 (racemic) | > 100000 |  |
| CC#CCOc1ccc(S(=O)(=O)NC(Cc2c(C)n(Cc3ccc(Cl)cc3)c3ccc(Cl)cc23)C(=O)O)cc1 (racemic) | 330 |  |
| CC#CCOc1ccc(S(=O)(=O)NC(Cc2cn(Cc3ccc(OC)cc3)c3ccc(C)cc23)C(=O)O)cc1 (racemic) | 890 |  |
| CC#CCOc1ccc(S(=O)(=O)NC(Cc2cn(Cc3cccc(OC)c3)c3ccc(OC)cc23)C(=O)O)cc1 (racemic) | 2240 |  |
| CC#CCOc1ccc(S(=O)(=O)NC(Cc2c[nH]c3ccc(OCc4ccccc4)cc23)C(=O)O)cc1 (single isomer, unassigned; enantiomer 2) | 370 | IC50 [3]: 3270 nM; IC50 (Interstitial collagenase): > 50000 nM; IC50 (Collagenase 3): 4440 nM; IC50 [4]: 19700 nM |
| CC#CCOc1ccc(S(=O)(=O)NC(Cc2c[nH]c3ccc(OCc4ccccc4)cc23)C(=O)O)cc1 (stereo in doubt; 11h) | 6980 |  |

Source: ChEMBL document CHEMBL1137760, “Synthesis and activity of tryptophan sulfonamide derivatives as novel non-hydroxamate TNF-alpha converting enzyme (TACE) inhibitors” (Bioorg Med Chem, 2009)
